# Earlier results as cited in patent publication US5516921A, “Thiono-lactone inhibitors of protein trafficking and uses therefor” (Ariad Pharmaceuticals, Inc., priority 1994, dated 1996).
# Key:
# [1] = in vivo
# [2] = system: β-COP
smiles,measurement,setting,value
"C[C@H]1CCC/C=C/[C@@H]2C[C@H](O)C[C@H]2[C@H](O)/C=C/C(=O)O1 [BFA, Brefeldin A]",biological half-life,[1],short
same,time at which release of β-COP from the Golgi is complete,[2]; complete release after BFA treatment,1 to 2 min
same,time at which release of β-COP from the Golgi occurs after treatment,[2]; onset of release after BFA treatment,≤ 20 s
